Experimental data as given in US12077503B2, “Substituted cyclic amides and their use as herbicides” (FMC CORPORATION, priority 2015, dated 2024).
Where two headings read alike, the source gives them in different places.

Experiments:
[1] = tested on: Galium (catchweed bedstraw, Galium aparine); test: Test A postemergence; format: in vivo; details: Galium, post-emergence, 240 h; for pest or weed control at 125 g/ha: 125 g ai/ha; for pest or weed control at 500 g/ha: 500 g ai/ha
Method in brief: (§1)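 Seeded soil received test chemicals as a preemergence directed spray, and seedlings at one to two leaves, 2–10 cm tall, received them postemergence, in a non-phytotoxic, surfactant-containing solvent mixture. Pots were held in a greenhouse for approximately 10 d, then rated for injury from 0, no effect, to 100, complete control.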

[2] = tested on: giant foxtail (Setaria faberii); test: Test A postemergence; format: in vivo; details: Setaria faberi, post-emergence, 240 h; for pest or weed control at 125 g/ha: 125 g ai/ha; for pest or weed control at 500 g/ha: 500 g ai/ha
Method in brief: as §1

[3] = tested on: barnyardgrass (Echinochloa crus-galli); test: Test A postemergence; format: in vivo; details: Echinochloa crus-galli, post-emergence, 240 h; for pest or weed control at 125 g/ha: 125 g ai/ha; for pest or weed control at 500 g/ha: 500 g ai/ha
Method in brief: as §1

[4] = tested on: wheat (Triticum aestivum); test: Test A postemergence; format: in vivo; details: Triticum aestivum, post-emergence, 240 h; for plant injury at 125 g/ha: 125 g ai/ha; for plant injury at 500 g/ha: 500 g ai/ha
Method in brief: as §1

[5] = tested on: Galium (catchweed bedstraw, Galium aparine); test: Test C preemergence; format: in vivo; details: for Plant response rating, Galium: scale 0 to 100, 0 no effect, 100 complete control
Method in brief: (§2)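 Seeds in loam-sand soil treated preemergence, or plants in peat-based medium sprayed postemergence at 2–18 cm (1- to 4-leaf stage), with compound in a non-phytotoxic solvent mixture containing surfactant. Greenhouse-held 13–15 d, then visually rated against controls on a 0–100 scale (0 = no effect, 100 = complete control); dash = not tested.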

[6] = tested on: blackgrass (Alopecurus myosuroides); test: Test C preemergence; format: in vivo; details: for Plant response rating, Blackgrass: scale 0 to 100, 0 no effect, 100 complete control
Method in brief: as §2

[7] = tested on: lambsquarters (Chenopodium album); test: Test C preemergence; format: in vivo; details: for Plant response rating, Lambsquarters: scale 0 to 100, 0 no effect, 100 complete control
Method in brief: as §2

[8] = tested on: wheat (winter wheat, Triticum aestivum); test: Test C preemergence; format: in vivo; details: for Plant response rating, Wheat: scale 0 to 100, 0 no effect, 100 complete control
Method in brief: as §2

corn (Zea mays) = test: Test C preemergence; format: in vivo; details: for Plant response rating, Corn: scale 0 to 100, 0 no effect, 100 complete control
Method in brief: as §2

[9] = tested on: crabgrass, large (large crabgrass, Digitaria sanguinalis); test: Test C preemergence; format: in vivo; details: for Plant response rating, Crabgrass, Large: scale 0 to 100, 0 no effect, 100 complete control
Method in brief: as §2

[10] = tested on: pigweed (Amaranthus retroflexus); test: Test C preemergence; format: in vivo; details: for Plant response rating, Pigweed: scale 0 to 100, 0 no effect, 100 complete control
Method in brief: as §2

[11] = tested on: johnsongrass (Sorghum halepense); test: Test C preemergence; format: in vivo; details: for Plant response rating, Johnsongrass: scale 0 to 100, 0 no effect, 100 complete control
Method in brief: as §2

[12] = tested on: foxtail, giant (giant foxtail, Setaria faberii); test: Test C preemergence; format: in vivo; details: for Plant response rating, Foxtail, Giant: scale 0 to 100, 0 no effect, 100 complete control
Method in brief: as §2

[13] = tested on: ragweed (common ragweed, Ambrosia elatior); test: Test C preemergence; format: in vivo; details: for Plant response rating, Ragweed: scale 0 to 100, 0 no effect, 100 complete control
Method in brief: as §2

Kochia (Kochia scoparia) = test: Test A postemergence; format: in vivo; details: Bassia scoparia, post-emergence, 240 h, read-out: Plant response rating, Kochia
Method in brief: as §1

[14] = 31 g ai/ha, 0 is no effect, 100 is complete control

Structure (SMILES): O=C1NC[C@H](c2nccs2)[C@H]1C(=O)Nc1ccccc1F [Compound 1181]
- pest or weed control at 125 g/ha ([1]; postemergence, visual injury vs untreated controls after approx. 10 d, 0 = no effect, 100 = complete control, read-out: Galium plant response rating (0 to 100 scale)): 0%
- pest or weed control at 500 g/ha ([1]; postemergence, 0 to 100 scale, 0 is no effect, 100 is complete control, read-out: Galium plant response rating): 0%
- pest or weed control at 125 g/ha ([2]; postemergence, visual injury vs untreated controls after approx. 10 d, 0 = no effect, 100 = complete control, read-out: Foxtail, Giant plant response rating (0 to 100 scale)): 0%
- pest or weed control at 500 g/ha ([2]; postemergence, 0 to 100 scale, 0 is no effect, 100 is complete control, read-out: Foxtail, Giant plant response rating): 0%
- pest or weed control at 125 g/ha ([3]; postemergence, visual injury vs untreated controls after approx. 10 d, 0 = no effect, 100 = complete control, read-out: Barnyardgrass plant response rating (0 to 100 scale)): 0%
- pest or weed control at 500 g/ha ([3]; postemergence, 0 to 100 scale, 0 is no effect, 100 is complete control, read-out: Barnyardgrass plant response rating): 0%
- plant injury at 125 g/ha ([4]; postemergence, visual injury vs untreated controls after approx. 10 d, 0 = no effect, 100 = complete control, read-out: Wheat plant response rating (0 to 100 scale)): 0%
- plant injury at 500 g/ha ([4]; postemergence, 0 to 100 scale, 0 is no effect, 100 is complete control, read-out: Wheat plant response rating): 0%
- melting point: 123 to 127.7 °C

Structure (SMILES): CN1C[C@H](c2ccc(F)c(F)c2)[C@@H](C(=O)Nc2ccccc2F)C1=O [Compound 596, (3S,4S)-4-(3,4-difluorophenyl)-N-(2-fluorophenyl)-1-methyl-2-oxo-3-pyrrolidinecarboxamide]
- Plant response rating (scale of 0 to 100), Galium [5, 14]: 30
- Plant response rating, Galium ([5]; 62 g ai/ha): 85
- Plant response rating, Galium ([5]; 125 g ai/ha): 40
- Plant response rating, Galium ([5]; 250 g ai/ha): 85
- Plant response rating (scale of 0 to 100), Blackgrass [6, 14]: 0
- Plant response rating, Blackgrass ([6]; 62 g ai/ha): 40
- Plant response rating, Blackgrass ([6]; 125 g ai/ha): 70
- Plant response rating, Blackgrass ([6]; 250 g ai/ha): 90
- Plant response rating (scale of 0 to 100), Lambsquarters [7, 14]: 10
- Plant response rating, Lambsquarters ([7]; 62 g ai/ha): 60
- Plant response rating, Lambsquarters ([7]; 125 g ai/ha): 70
- Plant response rating, Lambsquarters ([7]; 250 g ai/ha): 75
- Plant response rating (scale of 0 to 100), Wheat [8, 14]: 15
- Plant response rating, Wheat ([8]; 62 g ai/ha): 45
- Plant response rating, Wheat ([8]; 125 g ai/ha): 50
- Plant response rating, Wheat ([8]; 250 g ai/ha): 70
- Plant response rating (scale of 0 to 100), Corn (corn (Zea mays); [14]): 0
- Plant response rating, Corn (corn (Zea mays); 62 g ai/ha): 0
- Plant response rating, Corn (corn (Zea mays); 125 g ai/ha): 0
- Plant response rating, Corn (corn (Zea mays); 250 g ai/ha): 35
- Plant response rating (scale of 0 to 100), Crabgrass, Large [9, 14]: 95
- Plant response rating, Crabgrass, Large ([9]; 62 g ai/ha): 100
- Plant response rating, Crabgrass, Large ([9]; 125 g ai/ha): 100
- Plant response rating, Crabgrass, Large ([9]; 250 g ai/ha): 100
- Plant response rating (scale of 0 to 100), Pigweed [10, 14]: 20
- Plant response rating, Pigweed ([10]; 62 g ai/ha): 25
- Plant response rating, Pigweed ([10]; 125 g ai/ha): 40
- Plant response rating, Pigweed ([10]; 250 g ai/ha): 55
- Plant response rating (scale of 0 to 100), Johnsongrass [11, 14]: 20
- Plant response rating, Johnsongrass ([11]; 62 g ai/ha): 25
- Plant response rating, Johnsongrass ([11]; 125 g ai/ha): 70
- Plant response rating, Johnsongrass ([11]; 250 g ai/ha): 75
- Plant response rating (scale of 0 to 100), Foxtail, Giant [12, 14]: 90
- Plant response rating, Foxtail, Giant ([12]; 62 g ai/ha): 90
- Plant response rating, Foxtail, Giant ([12]; 125 g ai/ha): 95
- Plant response rating, Foxtail, Giant ([12]; 250 g ai/ha): 100
- Plant response rating (scale of 0 to 100), Ragweed [13, 14]: 10
- Plant response rating, Ragweed ([13]; 62 g ai/ha): 20
- Plant response rating, Ragweed ([13]; 125 g ai/ha): 50
- Plant response rating, Ragweed ([13]; 250 g ai/ha): 75
- pest or weed control at 125 g/ha ([1]; postemergence, visual rating after approx. 10 d, 0 to 100 scale (0 no effect, 100 complete control), read-out: Plant response rating, Galium): 30%
- pest or weed control at 500 g/ha ([1]; Postemergence, 0 to 100 scale where 0 is no effect and 100 is complete control, read-out: Plant response rating, Galium): 50%
- pest or weed control at 125 g/ha ([2]; postemergence, visual rating after approx. 10 d, 0 to 100 scale (0 no effect, 100 complete control), read-out: Plant response rating, Foxtail, Giant): 90%
- pest or weed control at 500 g/ha ([2]; Postemergence, 0 to 100 scale where 0 is no effect and 100 is complete control, read-out: Plant response rating, Foxtail, Giant): 90%
- pest or weed control at 125 g/ha ([3]; postemergence, visual rating after approx. 10 d, 0 to 100 scale (0 no effect, 100 complete control), read-out: Plant response rating, Barnyardgrass): 90%
- pest or weed control at 500 g/ha ([3]; Postemergence, 0 to 100 scale where 0 is no effect and 100 is complete control, read-out: Plant response rating, Barnyardgrass): 90%
- pest or weed control at 125 g/ha (Kochia (Kochia scoparia); 125 g ai/ha, postemergence, visual rating after approx. 10 d, 0 to 100 scale (0 no effect, 100 complete control)): 40%
- pest or weed control at 500 g/ha (Kochia (Kochia scoparia); Postemergence, 500 g ai/ha, 0 to 100 scale where 0 is no effect and 100 is complete control): 60%
- plant injury at 125 g/ha ([4]; postemergence, visual rating after approx. 10 d, 0 to 100 scale (0 no effect, 100 complete control), read-out: Plant response rating, Wheat): 0%
- plant injury at 500 g/ha ([4]; Postemergence, 0 to 100 scale where 0 is no effect and 100 is complete control, read-out: Plant response rating, Wheat): 50%
